Patent publication US7635788B2, “Alpha-amino acid derivatives with antiinflammatory activity” (Italfarmaco SpA, priority 2004, dated 2009)

Columns and labels:
[1] = system: human hepatoma cell line Hep-G2; experiment: Cytotoxicity towards tumour cells in vitro (Cell Titer 96 formazane colorimetric assay); type: cell-based; settings: 48 h, percentage inhibition of the formation of formazane relative to the control
Description: The cytotoxicity of some compounds described in the preceding Examples was evaluated in vitro on human hepatoma cell line Hep-G2, by means of a commercial colorimetric method (Cell Titer 96® Aque ous One Solution Cell Proliferation Assay—Promega); the method determines the number of viable cells on the basis of their capacity to metabolise a tetrazolium salt producing formazane. The quantity of formazane produced is proportional to the number of viable cells.
The Hep-G2 cells are distributed 96 well microplates at a density of 4×10^4 cells/well (100 μl), in M199 medium containing 10% foetal bovine serum and supplements (complete medium).
After 24 hours' incubation (37° C., 5% CO2, 90% humidity), the cells are washed once and the medium is replenished with 200 μl of complete medium containing the substances to be tested at the final concentration of 10^−5, 10^−6 and 10^−7M. The test is performed in triplicate.
The plates are incubated for a further 48 h, at the end of which 100 μl of medium are removed and 20 μl/well of staining solution are added in accordance with the supplier's instructions. Optical density (λ=490 nm) is read after 1 hour's incubation at 37° C. using a plate reader (Victor2—Wallac Perkin Elmer).

[2] = system: TNFα production by peripheral blood mononucleocytes stimulated with LPS; experiment: Inhibition of TNFα production by human monocytes stimulated with LPS; type: cell-based; settings: LPS 10 ng/ml, 24 hours, ELISA
Description: The compounds were dissolved in DMSO at a final concentration of 10 mM.
The solutions for the assay were prepared by diluting the mother solutions in RPMI 1640 with the addition of 1% FCS and 0.01% DMSO and were filtered with 0.2 μm filters.
The peripheral blood mononucleocytes were obtained from blood from healthy donors by separation in a Ficoll-Hypaque gradient [C. G. Figdor, et al. Blood, 1982, 60: 46-53]. The cells were sown in 96-well plates, at a concentration of approx. 500,000 cells per well, suspended in RPMI 1640 containing 1% FCS and were incubated at 37° C. in the presence of different concentrations (from 10^−6 to 10^−11M) of the compounds to be investigated. After 1 hour, LPS was added (at a final concentration of 10 ng/ml; obtained from E. coli 055:B5) and the plates were incubated at 37° C. for a further 24 hours. At the end of this period, the supernatants were collected and used for the determination of TNFα content by means of ELISA (DuoSet ELISA kit; R&D Systems, Minneapolis, Minn., USA).
The concentration of TNFα was calculated using a calibration curve and the IC50 values (the concentration which brings about 50% inhibition of the production of the cytokine) were calculated from the curve obtained by plotting the percentage inhibition values for each individual concentration of the compound under investigation.

| Structure (SMILES) | Cytotoxicity at 10^−5 M [1] [%] | Cytotoxicity at 10^−6 M [1] [%] | IC50 ([2]; Monocyte) [nM] | IC50 [2] [nM] |
| --- | --- | --- | --- | --- |
| Nc1ccc(C(=O)N[C@@H](Cc2ccc3ccccc3c2)C(=O)Nc2ccc(C(=O)NO)cc2)cc1 [Example 2m, 4-Amino-N-[1(S)-(4-hydroxycarbamoyl-phenylcarbamoyl)-2-naphthalen-2-yl-ethyl]-benzamide] | 72.4 | 24.5 | 26.7 |  |
| O=C(NO)c1ccc(NC(=O)[C@H](Cc2ccc(O)cc2)NC(=O)c2ccc3c(c2)OCO3)cc1 [Example 2s, N-[1(S)-(4-hydroxycarbamoyl-phenylcarbamoyl)-2-(4-hydroxy-phenyl)-ethyl]-amide of benzo[1,3]dioxole-5-carboxylic acid] |  |  |  | 1000 |
| CC(=O)N[C@H](Cc1ccc2ccccc2c1)C(=O)Nc1ccc(C(=O)NO)cc1 [Example 2b, 4-(2(R)-Acetylamino-3-naphthalen-2-yl-propionylamino)-N-hydroxy-benzamide] | 48.3 | 10.6 | 51.8 |  |
| O=C(NO)c1ccc(NC(=O)[C@H](Cc2ccc3ccccc3c2)NC(=O)c2cncc(Br)c2)cc1 [Example 2q, 5-Bromo-N-[1(S)-(4-hydroxycarbamoyl-phenylcarbamoyl)-2-naphthalen-2-yl-ethyl]-nicotinamide] | 53.9 | 11.7 | 22.9 |  |
| O=C(NO)c1ccc(NC(=O)[C@H](Cc2ccc(C(F)(F)F)cc2)NC(=O)c2cncc(Br)c2)cc1 [Example 2o, 5-Bromo-N-[1(S)-(4-hydroxycarbamoyl-phenylcarbamoyl)-2-(4-trifluoromethyl-phenyl)-ethyl]-nicotinamide] | 72.4 | 34.8 | 200 |  |
| O=C(NO)c1ccc(NC(=O)[C@H](Cc2ccccc2)NC(=O)c2ccc3ccccc3c2)cc1 [Example 2x, N-[1(S)-(4-hydroxycarbamoyl-phenylcarbamoyl)-2-phenyl-ethyl]-amide of naphthalene-2-carboxylic acid] | 77.3 | 15.3 |  | 8.6 |
| O=C(NO)c1ccc(NC(=O)[C@@H](Cc2ccc3ccccc3c2)NC(=O)c2ccc3ccccc3c2)cc1 [Example 2v, N-[1(R)-(4-hydroxycarbamoyl-phenylcarbamoyl)-2-naphthalen-2-yl-ethyl]-amide of naphthalene-2-carboxylic acid] | 69.4 | 11.8 |  | 16.8 |
| O=C(NO)c1ccc(NC(=O)[C@H](Cc2ccc(-c3ccccc3)cc2)NC(=O)c2cncc(Br)c2)cc1 [Example 2p, 5-Bromo-N-[1(S)-(4-hydroxycarbamoyl-phenylcarbamoyl)-2-biphenyl-4-yl-ethyl]-nicotinamide] | 61.7 | 10.5 | 42 |  |
| O=C(NO)c1ccc(NC(=O)[C@@H](Cc2ccc3ccccc3c2)NC(=O)c2ccccc2)cc1 [Example 1a, 4-(2(R)-Benzoylamino-3-naphthalen-2-yl-propionylamino)-N-hydroxy-benzamide] | 75.2 | 22.6 | 3 |  |
| O=C(NO)c1ccc(NC(=O)[C@H](Cc2cccc(F)c2)NC(=O)c2ccc3c(c2)OCO3)cc1 [Example 2u, N-[1(S)-(4-hydroxycarbamoyl-phenylcarbamoyl)-2-(3-fluoro-phenyl)-ethyl]-amide of benzo[1,3]dioxole-5-carboxylic acid] | 62.9 | 12.9 |  | 6.8 |
| O=C(NO)c1ccc(NC(=O)[C@H](Cc2ccc3ccccc3c2)NC(=O)c2ccccc2)cc1 [Example 2g, 4-(2(S)-Benzoylamino-3-naphthalen-2-yl-propionylamino)-N-hydroxy-benzamide] | 76.5 | 43.2 | 6.1 |  |
| CC(=O)N[C@H](C(=O)Nc1ccc(C(=O)NO)cc1)C1Cc2ccccc2C1 [Example 2c, 4-(2(S)-Acetylamino-2-indan-2-yl-acetylamino)-N-hydroxy-benzamide] | 78.3 | 28.5 | 55.9 |  |
| O=C(NO)c1ccc(NC(=O)[C@H](Cc2ccc(-c3ccccc3)cc2)NC(=O)c2ccccc2)cc1 [Example 2f, 4-(2(S)-Benzoylamino-3-biphenyl-4-yl-propionylamino)-N-hydroxy-benzamide] | 81.6 | 22.7 | 72.1 |  |
| CC(=O)N[C@@H](Cc1ccc(O)cc1)C(=O)Nc1ccc(C(=O)NO)cc1 [Example 2i, 4-[2(S)-Acetylamino-3-(4-hydroxy-phenyl)-propionylamino]-N-hydroxy-benzamide] | 12.2 | 15.7 | 13.3 |  |
| CC(=O)N[C@@H](Cc1ccc(C(F)(F)F)cc1)C(=O)Nc1ccc(C(=O)NO)cc1 [Example 2j, 4-[2(S)-Acetylamino-3-(4-trifluoromethyl-phenyl)-propionylamino]-N-hydroxy-benzamide] | 39.3 | 15.8 | 4.6 |  |
| O=C(NO)c1ccc(NC(=O)[C@H](Cc2ccc(C(F)(F)F)cc2)NC(=O)c2ccc3ccccc3c2)cc1 [Example 2w, N-[1(S)-(4-hydroxycarbamoyl-phenylcarbamoyl)-2-(4-trifluoromethyl-phenyl)-ethyl]-amide of naphthalene-2-carboxylic acid] | 65.7 | 25.3 |  | 23.7 |
| CC(=O)N[C@@H](Cc1ccccc1)C(=O)Nc1ccc(C(=O)NO)cc1 [Example 2e, 4-(2(S)-Acetylamino-3-phenyl-propionylamino)-N-hydroxy-benzamide] | 17.1 | 13.3 | 12.5 |  |
| Nc1ccc(C(=O)N[C@H](Cc2ccc3ccccc3c2)C(=O)Nc2ccc(C(=O)NO)cc2)cc1 [Example 2l, 4-Amino-N-[1(R)-(4-hydroxycarbamoyl-phenylcarbamoyl)-2-naphthalen-2-yl-ethyl]-benzamide] | 61.9 | 14.4 | 29.6 |  |
| O=C(NO)c1ccc(NC(=O)[C@H](Cc2ccc(O)cc2)NC(=O)c2ccccc2)cc1 [Example 2k, 4-[2(S)-Benzoylamino-3-(4-hydroxy-phenyl)-propionylamino]-N-hydroxy-benzamide] | 54.4 | 27.7 | 148 |  |
| O=C(NO)c1ccc(NC(=O)[C@H](Cc2ccc(-c3ccccc3)cc2)NC(=O)c2ccc3ccccc3c2)cc1 [Example 2y, N-[1(S)-(4-hydroxycarbamoyl-phenylcarbamoyl)-2-(biphenyl-4-yl)-ethyl]-amide of naphthalene-2-carboxylic acid] | 73.7 | 20.4 |  | 21.3 |
| O=C(NO)c1ccc(NC(=O)[C@H](Cc2ccccc2)NC(=O)c2ccccc2)cc1 [Example 2h, 4-(2(S)-Benzoylamino-3-phenyl-propionylamino)-N-hydroxy-benzamide] | 77.4 | 31.2 | 11.3 |  |
| CC(=O)N[C@@H](Cc1ccc2ccccc2c1)C(=O)Nc1ccc(C(=O)NO)cc1 [Example 2d, 4-(2(S)-Acetylamino-3-naphthalen-2-yl-propionylamino)-N-hydroxy-benzamide] | 56.2 | 9.6 | 4.4 |  |
